{
  "source": "patent US10807959B2",
  "about": "“WDR5-MLL1 inhibitors and modulators” (Vanderbilt University, priority 2018, dated 2020)",
  "data": [
    {"biological_target": "WDR5 (Homo sapiens (Human), UniProt P61964)", "test": "TR-FRET binding assay, displacement of 10mer-Thr-FAM probe from His-tagged WDR5", "conditions": "not given", "procedure": "(§1) The LanthaScreenTM Elite Tb-anti-HIS Antibody from ThermoFisher Scientific was used for this purpose. […] The ratio of the 520 and 495 signals are then utilized to generate a dose-response curve to calculate an IC50 value. […] WDR[…] tag protein is used at 2 nM.", "units": {"Ki": "nM"}, "values": [
      {"smiles": "COc1ccc(C(=O)NCc2ccc(Cl)c(Cl)c2)cc1CNC1=NCCN1", "note": "[Example B28]", "Ki": 0.622},
      {"smiles": "Cc1cc(-c2cc(CNC3=NCCN3)cc(C(=O)NCc3ccc(Cl)c(Cl)c3)c2)ccn1", "note": "[Example B74]", "Ki": 0.0312},
      {"smiles": "Cc1cc(-c2cc(CNC3=NCCN3)cc(C(=O)NCc3cc(Cl)cc(Cl)c3)c2)ccn1", "note": "[Example B81]", "Ki": 0.033},
      {"smiles": "COc1ccnc(CNC(=O)c2cc(CNC3=NCCN3)cc(-c3cc(OC)ccc3OC)c2)c1", "note": "[Example B115]", "Ki": 0.48},
      {"smiles": "COc1cc(CNC(=O)c2cc(CNC3=NCCN3)cc(-c3cc(C)cnc3F)c2)cc(OC)c1", "note": "[Example B109]", "Ki": 0.0385},
      {"smiles": "COc1cc(CNC(=O)c2cc(CNC3=NCCN3)cc(-c3ccnc(C)c3)c2)cc(OC)c1", "note": "[Example B72]", "Ki": 0.634},
      {"smiles": "Cc1cc(F)ccc1-c1cc(CNC2=NCCC2)cc(C(=O)NCc2ccc(Cl)c(Cl)c2)n1", "note": "[Example C22]", "Ki": 0.132},
      {"smiles": "Cc1cc(C)cc(CNC(=O)c2cc(CNC3=NCCN3)cc(-c3ccnc(C)c3)c2)c1", "note": "[Example B90]", "Ki": 0.115}
    ]},
    {"biological_target": "WDR5 (Homo sapiens (Human), UniProt P61964)", "test": "TR-FRET binding assay, displacement of 10mer-Thr-FAM probe from His-tagged WDR5", "conditions": "Inhibition of WDR5 by TR-FRET assay", "procedure": "as §1", "units": {"Ki": "nM"}, "values": [
      {"smiles": "COc1cc(CNC(=O)c2cc(CNC3=NCCN3)cc(-c3cnc(OC)c(Cl)c3)c2)cc(OC)c1", "note": "[Example 34, 3-(5-Chloro-6-methoxypyridin-3-yl)-5-(((4,5-dihydro-1H-imidazol-2-yl)amino)methyl)-N-(3,5-dimethoxybenzyl)benzamide]", "Ki": 0.37},
      {"smiles": "Cc1cc(-c2cc(CNC3=NCCN3)cc(C(=O)NCc3cc(Cl)ccn3)c2)ccn1", "note": "[Example 22, N-((4-chloropyridin-2-yl)methyl)-3-(((4,5-dihydro-1H-imidazol-2-yl)amino)methyl)-5-(2-methylpyridin-4-yl)benzamide]", "Ki": 0.28},
      {"smiles": "COc1ccnc(CNC(=O)c2cc(CNC3=NCCN3)cc(-c3ccc(F)nc3C)c2)c1", "note": "[Example 11, 3-(((4,5-Dihydro-1H-imidazol-2-yl)amino)methyl)-5-(6-fluoro-2-methylpyridin-3-yl)-N-((4-methoxypyridin-2-yl)methyl)benzamide]", "Ki": 0.22},
      {"smiles": "COc1ccnc(CNC(=O)c2cc(CNC3=NCCN3)cc(-c3cc(C(F)(F)F)cnc3OC)c2)c1", "note": "[Example 46, 3-(((4,5-dihydro-1H-imidazol-2-yl)amino)methyl)-5-(2-methoxy-5-(trifluoromethyl)pyridin-3-yl)-N-((4-methoxypyridin-2-yl)methyl)benzamide]", "Ki": 0.1},
      {"smiles": "Cc1ccc(CNC(=O)c2cc(CNC3=NCCN3)cc(-c3ccnc(C)c3)c2)cn1", "note": "[Example 26, 3-(((4,5-dihydro-1H-imidazol-2-yl)amino)methyl)-N-((6-methylpyridin-3-yl)methyl)-5-(2-methylpyridin-4-yl)benzamide]", "Ki": 3},
      {"smiles": "COc1cc(CNC(=O)c2cc(CNC3=NCCN3)cc(-c3cnccc3C)c2)cc(OC)c1", "note": "[Example 13, 3-(((4,5-dihydro-1H-imidazol-2-yl)amino)methyl)-N-(3,5-dimethoxybenzyl)-5-(4-methylpyridin-3-yl)benzamide]", "Ki": 0.53},
      {"smiles": "Cc1ccc(CNC(=O)c2cc(CNC(=N)N)cc(-c3ccnc(C)c3)c2)cn1", "note": "[Example 104, 3-(guanidinomethyl)-N-((6-methylpyridin-3-yl)methyl)-5-(2-methylpyridin-4-yl)benzamide]", "Ki": 12},
      {"smiles": "Cc1ccncc1-c1cc(CNC2=NCCN2)cc(C(=O)NCc2cc(F)cc(Cl)c2)c1", "note": "[Example 24, N-(3-chloro-5-fluorobenzyl)-3-(((4,5-dihydro-1H-imidazol-2-yl)amino)methyl)-5-(4-methylpyridin-3-yl)benzamide]", "Ki": 0.37},
      {"smiles": "Cc1cnccc1-c1cc(CNC2=NCCN2)cc(C(=O)NCc2ccc(Cl)c(Cl)c2)n1", "note": "[Example 84, N-(3,4-Dichlorobenzyl)-4-(((4,5-dihydro-1H-imidazol-2-yl)amino)methyl)-3′-methyl-[2,4′-bipyridine]-6-carboxamide]", "Ki": 0.15},
      {"smiles": "Cc1cc(-c2cc(CNC3=NCCN3)cc(C(=O)NCc3ccc(Cl)cn3)c2)ccn1", "note": "[Example 27, N-((5-chloropyridin-2-yl)methyl)-3-(((4,5-dihydro-1H-imidazol-2-yl)amino)methyl)-5-(2-methylpyridin-4-yl)benzamide]", "Ki": 1.5},
      {"smiles": "CCn1cc(-c2cc(CNC(=N)CC3CC3)cc(C(=O)N[C@H](c3ccc(F)c(C)c3)C3CC3)c2)c(C(F)(F)F)n1", "note": "[Example 107, (S)—N-(Cyclopropyl(4-fluoro-3-methylphenyl)methyl)-3-((2-cyclopropylacetimidamido)methyl)-5-(1-ethyl-3-(trifluoromethyl)-1H-pyrazol-4-yl)benzamide]", "Ki": 0.15},
      {"smiles": "COc1ccc(CNC(=O)c2cc(CNC3=NCCN3)cc(-c3ccnc(C)c3)c2)cc1Cl", "note": "[Example 23, N-(3-chloro-4-methoxybenzyl)-3-(((4,5-dihydro-1H-imidazol-2-yl)amino)methyl)-5-(2-methylpyridin-4-yl)benzamide]", "Ki": 1.3},
      {"smiles": "CCn1cc(-c2cc(CNC(=N)C3CCOC3)cc(C(=O)N[C@H](c3ccc(F)c(C)c3)C3CC3)c2)c(C(F)(F)F)n1", "note": "(stereo partly drawn) [Example 108, N—((S)-Cyclopropyl(4-fluoro-3-methylphenyl)methyl)-3-(1-ethyl-3-(trifluoromethyl)-1H-pyrazol-4-yl)-5-((tetrahydrofuran-3-carboximidamido)methyl)benzamide]", "Ki": 2},
      {"smiles": "COc1cc(CNC(=O)c2cc(CNC3=NCCN3)cc(-c3cnc(F)c(C)c3)c2)cc(OC)c1", "note": "[Example 30, 3-(((4,5-Dihydro-1H-imidazol-2-yl)amino)methyl)-N-(3,5-dimethoxybenzyl)-5-(6-fluoro-5-methylpyridin-3-yl)benzamide]", "Ki": 0.33},
      {"smiles": "Cc1cc(C(C)NC(=O)c2cc(CNC3=NCCC3)cc(-c3ccc(F)cc3C(F)(F)F)n2)ncc1Cl", "note": "(stereo not shown) [Example 96, N-(1-(5-chloro-4-methylpyridin-2-yl)ethyl)-4-(((3,4-dihydro-2H-pyrrol-5-yl)amino)methyl)-6-(4-fluoro-2-(trifluoromethyl)phenyl)picolinamide]", "Ki": 1.5},
      {"smiles": "COc1cc(OC)cc(C(C)NC(=O)c2cc(CNC3=NCCN3)cc(-c3cnccc3C)c2)c1", "note": "(stereo not shown) [Example 20, 3-(((4,5-dihydro-1H-imidazol-2-yl)amino)methyl)-N-(1-(3,5-dimethoxyphenyl)ethyl)-5-(4-methylpyridin-3-yl)benzamide]", "Ki": 0.6},
      {"smiles": "COc1cc(CN(C)C(=O)c2cc(CNC3=NCCN3)cc(-c3ccc(F)nc3C)c2)cc(OC)c1", "note": "[Example 8, 3-(((4,5-Dihydro-1H-imidazol-2-yl)amino)methyl)-N-(3,5-dimethoxybenzyl)-5-(6-fluoro-2-methylpyridin-3-yl)-N-methylbenzamide]", "Ki": 12},
      {"smiles": "COc1cc(CNC(=O)c2cc(CNC3=NCCN3)cc(-c3ccnc(C)c3)c2)ccc1Cl", "note": "[Example 17, N-(4-chloro-3-methoxybenzyl)-3-(((4,5-dihydro-1H-imidazol-2-yl)amino)methyl)-5-(2-methylpyridin-4-yl)benzamide]", "Ki": 3.2},
      {"smiles": "COc1ccnc(CNC(=O)c2cc(CNC3=NCCN3)cc(-c3ccnc(C)c3)c2)c1", "note": "[Example 21, 3-(((4,5-Dihydro-1H-imidazol-2-yl)amino)methyl)-N-((4-methoxypyridin-2-yl)methyl)-5-(2-methylpyridin-4-yl)benzamide]", "Ki": 0.39},
      {"smiles": "COc1ccnc(CNC(=O)c2cc(CNC(=N)N)cc(-c3ccnc(C)c3)c2)c1", "note": "[Example 102, 3-(Guanidinomethyl)-N-((4-methoxypyridin-2-yl)methyl)-5-(2-methylpyridin-4-yl)benzamide]", "Ki": 1},
      {"smiles": "COc1ccnc(CNC(=O)c2cc(CNC3=NCCN3)cc(-c3ccc(F)cc3OC)c2)c1", "note": "[Example 49, 5-(((4,5-Dihydro-1H-imidazol-2-yl)amino)methyl)-4′-fluoro-2′-methoxy-N-((4-methoxypyridin-2-yl)methyl)-[1,1′-biphenyl]-3-carboxamide]", "Ki": 0.3},
      {"smiles": "O=C(NCc1ccc(Cl)c(Cl)c1)c1cc(Cn2ccnc2)cc(OC2CCC2)c1", "note": "[Example 142, 3-((1H-Imidazol-1-yl)methyl)-5-cyclobutoxy-N-(3,4-dichlorobenzyl)benzamide]", "Ki": 0.59},
      {"smiles": "COc1ccc(CNC(=O)c2cc(CNC3=NCCN3)cc(-c3ccnc(C)c3)c2)cc1OC", "note": "[Example 15, 3-(((4,5-dihydro-1H-imidazol-2-yl)amino)methyl)-N-(3,4-dimethoxybenzyl)-5-(2-methylpyridin-4-yl)benzamide]", "Ki": 1.7},
      {"smiles": "O=C(NCc1ccc(Cl)c(Cl)c1)c1cc(Cn2ccnc2)cc(C(F)(F)F)c1", "note": "[Example 141, 3-((1H-Imidazol-1-yl)methyl)-N-(3,4-dichlorobenzyl)-5-(trifluoromethyl)benzamide]", "Ki": 10},
      {"smiles": "COc1ccnc(CNC(=O)c2cc(CNC3=NCCC3)cc(-c3ccc(F)cc3C(F)(F)F)n2)c1", "note": "[Example 94, 4-(((3,4-dihydro-2H-pyrrol-5-yl)amino)methyl)-6-(4-fluoro-2-(trifluoromethyl)phenyl)-N-((4-methoxypyridin-2-yl)methyl)picolinamide]", "Ki": 1.2},
      {"smiles": "COc1cc(CNC(=O)c2cc(CNC3=NCCN3)cc(-c3ccc(F)nc3C)n2)ccn1", "note": "[Example 79, 4-(((4,5-Dihydro-1H-imidazol-2-yl)amino)methyl)-6′-fluoro-N-((2-methoxypyridin-4-yl)methyl)-2′-methyl-[2,3′-bipyridine]-6-carboxamide]", "Ki": 5.74},
      {"smiles": "Cc1cc(CNC(=O)c2cc(CNC3=NCCN3)cc(-c3cnc(F)c(C)c3)c2)ccc1Cl", "note": "[Example 31, N-(4-Chloro-3-methylbenzyl)-3-(((4,5-dihydro-1H-imidazol-2-yl)amino)methyl)-5-(6-fluoro-5-methylpyridin-3-yl)benzamide]", "Ki": "< 0.1"},
      {"smiles": "Cc1cnc(CNC(=O)c2cc(CNC3=NCCN3)cc(-c3ccc(F)nc3C)n2)cn1", "note": "[Example 76, 4-(((4,5-Dihydro-1H-imidazol-2-yl)amino)methyl)-6′-fluoro-2′-methyl-N-((5-methylpyrazin-2-yl)methyl)-[2,3′-bipyridine]-6-carboxamide]", "Ki": 32},
      {"smiles": "COc1cc(OC)cc(C(C)NC(=O)c2cc(CNC3=NCCC3)cc(-c3ccc(F)cc3C(F)(F)F)n2)c1", "note": "(stereo not shown) [Example 93, 4-(((3,4-dihydro-2H-pyrrol-5-yl)amino)methyl)-N-(1-(3,5-dimethoxyphenyl)ethyl)-6-(4-fluoro-2-(trifluoromethyl)phenyl)picolinamide]", "Ki": 3.3}
    ]}
  ]
}
